Reference: patent US6355799B1, “Substituted benzene compounds, process for their preparation, and herbicidal and defoliant compositions containing them” (ISK Americas Incorporated, priority 1997, dated 2002)

Columns and labels:
Type in all cases: in vivo
[1] = test system: sicklepod (Cassia obtusifolia, CASOB); assay: Pre-emerge test, greenhouse herbicide activity screening; conditions: pre-emerge, 14 days after application, scale 0-100
Method in brief: (§1)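 Fourteen days after spraying, crop and weed injury was graded visually from 0, no effect, to 100, every plant dead. Test substances were dissolved in acetone and applied at 15–1000 g ai/ha with a flat-fan nozzle. Application was either pre-emergence, one day after sowing, or post-emergence at the 2–3 leaf stage.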

[2] = test system: barnyardgrass (Echinochloa crus-galli, ECHCG); assay: as above; conditions: pre-emerge, 14 days after application, scale 0-100
Method in brief: as §1

[3] = test system: green foxtail (Setaria viridis, SETVI); assay: as above; conditions: pre-emerge, 14 days after application, scale 0-100
Method in brief: as §1

[4] = test system: velvetleaf (Abutilon theophrasti, ABUTH); assay: as above; conditions: pre-emerge, 14 days after application, scale 0-100
Method in brief: as §1

[5] = test system: johnsongrass (Sorghum halepense, SORHA); assay: as above; conditions: pre-emerge, 14 days after application, scale 0-100
Method in brief: as §1

[6] = test system: lambsquarters (Chenopodium album, CHEAL); assay: as above; conditions: pre-emerge, 14 days after application, scale 0-100
Method in brief: as §1

[7] = test system: ivyleaf morningglory (Ipomoea hederacea, IPOHE); assay: as above; conditions: pre-emerge, 14 days after application, scale 0-100
Method in brief: as §1

[8] = test system: large crabgrass (Digitaria sanguinalis, DIGSA); assay: as above; conditions: pre-emerge, 14 days after application, scale 0-100
Method in brief: as §1

[9] = test system: field corn (Zea mays L., var. Dekalb 535, CORN); assay: Post-emerge test, crop safety; conditions: post-emerge, 14 days after application, rating scale 0-100
Method in brief: as §1

[10] = test system: upland rice (Oryza sp., var. Tebonnet, RICE); assay: Post-emerge test, crop safety; conditions: post-emerge, 14 days after application, rating scale 0-100
Method in brief: as §1

[11] = test system: field corn (Zea mays L., var. Dekalb 535, CORN); assay: Pre-emerge test, crop safety; conditions: pre-emerge, 14 days after application, scale 0-100
Method in brief: as §1

[12] = test system: upland rice (Oryza sp., var. Tebonnet, RICE); assay: Pre-emerge test, crop safety; conditions: pre-emerge, 14 days after application, scale 0-100
Method in brief: as §1

[13] = test system: sicklepod (Cassia obtusifolia, CASOB); assay: Post-emerge test, greenhouse herbicide activity screening; conditions: post-emerge, 14 days after application, rating scale 0-100
Method in brief: (§2)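 Compounds in acetone were track-sprayed at 15-1000 g ai/ha (187 l/ha) on sandy loam pots: pre-emerge one day after seeding, post-emerge at 2-3 leaf stage with 0.25% v/v non-ionic surfactant. Phytotoxicity was rated 14 days later on a 0 (no damage) to 100 (complete death) scale.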

[14] = test system: barnyardgrass (Echinochloa crus-galli, ECHCG); assay: as above; conditions: post-emerge, 14 days after application, rating scale 0-100
Method in brief: as §2

[15] = test system: green foxtail (Setaria viridis, SETVI); assay: as above; conditions: post-emerge, 14 days after application, rating scale 0-100
Method in brief: as §2

[16] = test system: velvetleaf (Abutilon theophrasti, ABUTH); assay: as above; conditions: post-emerge, 14 days after application, rating scale 0-100
Method in brief: as §2

[17] = test system: redroot pigweed (Amaranthus retroflexus, AMARE); assay: as above; conditions: post-emerge, 14 days after application, rating scale 0-100
Method in brief: as §2

[18] = test system: ivyleaf morningglory (Ipomoea hederacea, IPOHE); assay: as above; conditions: post-emerge, 14 days after application, rating scale 0-100
Method in brief: as §2

[19] = test system: large crabgrass (Digitaria sanguinalis, DIGSA); assay: as above; conditions: post-emerge, 14 days after application, rating scale 0-100
Method in brief: as §2

[20] = test system: redroot pigweed (Amaranthus retroflexus, AMARE); assay: Pre-emerge test, greenhouse herbicide activity screening; conditions: pre-emerge, 14 days after application, scale 0-100
Method in brief: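 Rating: 0–100 visual injury, 14 DAA. Application: acetone, 187 l/ha, 15–1000 g ai/ha, flat-fan track sprayer with nozzle 40–45 cm above soil or canopy. Post-emerge runs used 0.25% v/v surfactant on 2–3 leaf plants.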

Compound	phytotoxicity rating CASOB ([1]; 63 g ai/ha)	phytotoxicity rating CASOB ([1]; 250 g ai/ha)	phytotoxicity rating ECHCG ([2]; 63 g ai/ha)	phytotoxicity rating ECHCG ([2]; 250 g ai/ha)	phytotoxicity rating SETVI ([3]; 63 g ai/ha)	phytotoxicity rating SETVI ([3]; 250 g ai/ha)	phytotoxicity rating ABUTH ([4]; 63 g ai/ha)	phytotoxicity rating ABUTH ([4]; 250 g ai/ha)	phytotoxicity rating SORHA ([5]; 63 g ai/ha)	phytotoxicity rating SORHA ([5]; 250 g ai/ha)	phytotoxicity rating CHEAL ([6]; 63 g ai/ha)	phytotoxicity rating CHEAL ([6]; 250 g ai/ha)	phytotoxicity rating IPOHE ([7]; 63 g ai/ha)	phytotoxicity rating IPOHE ([7]; 250 g ai/ha)	phytotoxicity rating DIGSA ([8]; 63 g ai/ha)	phytotoxicity rating DIGSA ([8]; 250 g ai/ha)	CORN phytotoxicity rating (crop damage) ([9]; 63 g ai/ha)	CORN phytotoxicity rating (crop damage) ([9]; 250 g ai/ha)	RICE phytotoxicity rating (crop damage) ([10]; 63 g ai/ha)	RICE phytotoxicity rating (crop damage) ([10]; 250 g ai/ha)	other results
COc1c(Cl)cc(Cl)c(-n2c(=O)cc(C(F)(F)F)n(C)c2=O)c1NC(=O)c1ccc2ccccc2c1 [2-144]	0	20	20	75	40	90	70	100	10	70	100	100	0	30	20	70	40	20	15	35	phytotoxicity rating CORN (crop damage) ([11]; 63 g ai/ha): 0; phytotoxicity rating CORN (crop damage) ([11]; 250 g ai/ha): 0; phytotoxicity rating RICE (crop damage) ([12]; 63 g ai/ha): 20; phytotoxicity rating RICE (crop damage) ([12]; 250 g ai/ha): 45; CASOB phytotoxicity rating ([13]; 63 g ai/ha): 60; CASOB phytotoxicity rating ([13]; 250 g ai/ha): 85; ECHCG phytotoxicity rating ([14]; 63 g ai/ha): 0; ECHCG phytotoxicity rating ([14]; 250 g ai/ha): 10; SETVI phytotoxicity rating ([15]; 63 g ai/ha): 0; SETVI phytotoxicity rating ([15]; 250 g ai/ha): 30; ABUTH phytotoxicity rating ([16]; 63 g ai/ha): 85; ABUTH phytotoxicity rating ([16]; 250 g ai/ha): 100; AMARE phytotoxicity rating ([17]; 63 g ai/ha): 75; AMARE phytotoxicity rating ([17]; 250 g ai/ha): 90; IPOHE phytotoxicity rating ([18]; 63 g ai/ha): 60; IPOHE phytotoxicity rating ([18]; 250 g ai/ha): 70; DIGSA phytotoxicity rating ([19]; 63 g ai/ha): 0; DIGSA phytotoxicity rating ([19]; 250 g ai/ha): 0; phytotoxicity rating AMARE ([20]; 63 g ai/ha): 99; phytotoxicity rating AMARE ([20]; 250 g ai/ha): 100
COc1ccc(-n2c(=O)cc(C(F)(F)F)n(C)c2=O)c(NC(=O)c2ccc3ccccc3c2)c1 [2-143]	0	90	30	85	30	70	100	100	30	80	100	100	0	35	30	100	10	35	40	70	phytotoxicity rating CORN (crop damage) ([11]; 63 g ai/ha): 0; phytotoxicity rating CORN (crop damage) ([11]; 250 g ai/ha): 5; phytotoxicity rating RICE (crop damage) ([12]; 63 g ai/ha): 20; phytotoxicity rating RICE (crop damage) ([12]; 250 g ai/ha): 65; CASOB phytotoxicity rating ([13]; 63 g ai/ha): 70; CASOB phytotoxicity rating ([13]; 250 g ai/ha): 100; ECHCG phytotoxicity rating ([14]; 63 g ai/ha): 0; ECHCG phytotoxicity rating ([14]; 250 g ai/ha): 30; SETVI phytotoxicity rating ([15]; 63 g ai/ha): 0; SETVI phytotoxicity rating ([15]; 250 g ai/ha): 40; ABUTH phytotoxicity rating ([16]; 63 g ai/ha): 100; ABUTH phytotoxicity rating ([16]; 250 g ai/ha): 100; AMARE phytotoxicity rating ([17]; 63 g ai/ha): 100; AMARE phytotoxicity rating ([17]; 250 g ai/ha): 100; IPOHE phytotoxicity rating ([18]; 63 g ai/ha): 60; IPOHE phytotoxicity rating ([18]; 250 g ai/ha): 100; DIGSA phytotoxicity rating ([19]; 63 g ai/ha): 0; DIGSA phytotoxicity rating ([19]; 250 g ai/ha): 40; phytotoxicity rating AMARE ([20]; 63 g ai/ha): 100; phytotoxicity rating AMARE ([20]; 250 g ai/ha): 100
